# Reference: PMC8268238, “Seleno-Functionalization of Quercetin Improves the Non-Covalent Inhibition of M^pro and Its Antiviral Activity in Cells against SARS-CoV-2” (International Journal of Molecular Sciences, 2021)
# pIC50, pKi: −log10 of the molar value. Read-outs that look alike come from different tables or passages of the source.
# Columns and labels:
# [1] = target: T1, SARS-CoV-2 M^pro (Severe acute respiratory syndrome coronavirus 2, UniProt P0DTD1); assay: SARS-CoV-2 M^pro inhibition assay (FRET substrate); assay type: biochemical; details: 0.2 μM enzyme, 20 μM substrate, pH 7, DMSO 2.5%
# Method: A continuous assay based on Förster resonance energy transfer (FRET) to measure in vitro the catalytic activity of M^pro was implemented by using the substrate (Dabcyl)KTSAVLQSGFRKME(Edans)-NH2 (Biosyntan GmbH, Berlin, Germany) The enzymatic reaction was initiated by adding substrate at 20 μM (final concentration) to the enzyme at 0.2 μM (final concentration) in a final volume of 100 μL. The reaction buffer was sodium phosphate 50 mM, pH 7, NaCl 150 mM, and DMSO 2.5%. Fluorescence emission was measured in a FluoDia T70 microplate reader (Photon Technology International, Birmingham, NJ, USA) for 20 min (excitation wavelength, 380 nm; emission wavelength, 500 nm). The initial slope of the time evolution curve of the fluorescence emission signal provided a direct quantification of the enzymatic activity.
# The in vitro inhibition potency of the compounds against M^pro was assessed through the estimation of the inhibition constant, Ki, and the half-maximal inhibitory concentration, IC50, from experimental inhibition curves. Inhibition curves were obtained by measuring the enzyme activity (at fixed 0.2 μM enzyme concentration and fixed 20 μM substrate concentration) as a function of compound concentration (serial 2-fold dilution from 125 µM to 0 μM), maintaining the percentage of DMSO (2.5%) constant. The enzymatic activity was quantitated as the initial slope of the substrate fluorescence emission time evolution curve, and was plotted as a function of compound concentration. The ratio between the activity (slope) in the presence and absence of the compound provides the residual percentage of activity at a given compound concentration. Nonlinear regression analysis employing a simple inhibition model (considering inhibitor depletion due to enzyme binding) allowed us to estimate the apparent inhibition constant, Ki^app, for each compound according to Equation (1):(1) [EI]=1/2([I]T+[E]T+Kiapp−([I]T+[E]T+Kiapp)^2−4[E]T[I]T)[I]=[I]T−[EI]=1/2([I]T−[E]T−Kiapp+([I]T+[E]T+Kiapp)^2−4[E]T[I]T)v([I])/v([I]=0)=1−[EI]/[E]T=1/1+[I]/Kiapp, where [EI] is the concentration of the enzyme–inhibitor complex, [E]T and [I]T are the total concentrations of the enzyme and the inhibitor, Ki^app is the apparent inhibition constant for the inhibitors (quercetin and derivatives), [I] is the concentration of the free inhibitor, and v is the initial slope of the enzymatic activity trace at a given (free) inhibitor concentration [I] (or total inhibitor concentration [I]T). No approximation for the free inhibitor concentration (e.g., assuming to be equal to the total inhibitor concentration) was made, thus having general validity for any total enzyme and inhibitor concentration and any value of the inhibition constant (even for tight-binding inhibitors). In addition, if the inhibitor acts through a purely competitive mechanism, the previous equation can be substituted by Equation (2):(2) v([I])/v([I]=0)=1/1+[I]/Kiapp=1/1+[I]/Ki(1+[S]/Km), where Ki is the intrinsic (i.e., substrate concentration-independent) inhibition constant, Km is the Michaelis–Menten constant for the enzyme–substrate interaction, and [S] is the substrate concentration. Because Km and [S] are known, the intrinsic inhibition constant can be determined. Furthermore, approximating the free compound concentration by the total compound concentration and neglecting ligand depletion, the Ki^app in Equation (2) is equivalent to the IC50, as reported in Table 3. However, it should be emphasized that the IC50 is an assay-dependent inhibition potency index (among other parameters, it depends on the enzyme and substrate concentrations, as well as on the Km); thus, the intrinsic inhibition constant is a better inhibition potency index. Uncertainties have been reported as 95% profile likelihood asymmetric confidence intervals, as especially recommended for equilibrium constants (i.e., binding association/dissociation constants and inhibition constants).
# [2] = system: SARS-CoV-2; assay: Inhibition of SARS-CoV-2 replication in Vero cells by RT-qPCR; assay type: cell-based
# [3] = system: Vero cells; assay: XTT cell viability assay; assay type: cell-based, Cercopithecus aethiops; details: quercetin 500–100 µM; 2d 100–10 µM; Figure S2
# Method: Cell viability was evaluated using the XTT Cell Viability Assay kit (Biological Industries, Cromwell, CT, USA) according to the manufacturer’s protocol. Vero, A549ACE2+, CRFK, HRT-18, LLC-MK2, and HSF cells were cultured on 96-well plates. Cells were incubated with ACF for 24 h at 37 °C in an atmosphere containing 5% CO2. After incubation, the medium was discarded and 100 µL of fresh medium was added to each well. Then, 25 µL of the activated 2,3-bis-(2-methoxy-4-nitro-5-sulphenyl)-(2H)-tetrazolium-5-carboxanilide (XTT) solution was added and samples were incubated for 2 h at 37 °C. The absorbance (λ = 450 nm) was measured using a Spectra MAX 250 spectrophotometer (Molecular Devices, San Jose, CA, USA). The obtained results were normalized to the control samples, where cell viability was set to 100%.
# [4] = target: T1, SARS-CoV-2 M^pro; assay: Reversibility test of M^pro interaction (SEC/dialysis, then activity and near-UV CD); assay type: biochemical; details: M^pro 24 μM incubated with compound 200 μM, 30 min, 25 °C, then SEC or dialysis
# [5] = system: SARS-CoV-2; details: for Inhibition of the virus-caused cytopathic effect (CPE): 2 days
# [6] = system: SARS-CoV-2 main protease (M^pro or 3CL^pro); details: cited from earlier work
# [7] = system: SARS-CoV-2; design: method as in PMID 32272481; details: cited from earlier work
structure (smiles),measurement,setting,value
"Cc1ccc([Se]c2c(O)cc(O)c3c(=O)c(O)c(-c4ccc(O)c(O)c4)oc23)cc1 [2d, 2-(3,4-Dihydroxyphenyl)-3,5,7-trihydroxy-8-(p-tolylselanyl)-4H-chromen-4-one]",pIC50,[1]; equivalent to Ki^app,4.96
same,pKi,[1]; intrinsic inhibition constant,5.42
same,pIC50,"[2]; Severe acute respiratory syndrome coronavirus 2, Vero, 48 h, read-out: IC50 of SARS-CoV-2 replication (RT-qPCR)",5.10
same,logIC50 of SARS-CoV-2 replication (RT-qPCR),"[2]; log of concentration in µM, Figure S4","0,8968"
same,improvement of the antiviral potency versus quercetin,[2]; ratio of antiviral IC50 values,24 fold
same,cytotoxicity on Vero cells (in words),[3],none of the tested concentrations exhibited cytotoxicity
same,reversibility of the interaction with M^pro,[4],reversible interaction
same,melting point,,203 to 206 °C
same,Inhibition of the virus-caused cytopathic effect (CPE),"[5]; 10 µM, Vero cells",+
same,Inhibition of the virus-caused cytopathic effect (CPE),"[5]; 25 µM, Vero cells",+
same,Inhibition of the virus-caused cytopathic effect (CPE),"[5]; 50 µM, Vero cells",+
same,Inhibition of the virus-caused cytopathic effect (CPE),"[5]; 75 µM, Vero cells",+
same,Inhibition of the virus-caused cytopathic effect (CPE),"[5]; 100 µM, Vero cells",+
same,morphological changes of cells in the infection model,"[5]; 100 µM, in half of experiments",morphological changes were observed
same,maximal non-toxic concentration,"[5]; Vero cells, Figure S3",100 µM
same,SARS-CoV-2-related CPE reduction (in words),"[5]; tested at 100, 75, 50, 25 and 10 µM, judged at non-toxic concentrations",inhibited the development of the CPE
O=c1c2ccccc2[se]n1-c1ccccc1 [ebselen],"M^pro half-maximal inhibitory concentration (IC50), in words",[6],nanomolar range
same,"Antiviral activity observed in cell models, in words",[7],low micromolar levels
C[C@@H]1O[C@@H](OC[C@H]2O[C@@H](Oc3c(-c4ccc(O)c(O)c4)oc4cc(O)cc(O)c4c3=O)[C@H](O)[C@@H](O)[C@@H]2O)[C@H](O)[C@H](O)[C@H]1O [rutin],"M^pro inhibition potency relative to quercetin, in words",[6],slightly lower potency
